Reference: ChEMBL document CHEMBL3991601, “The target landscape of clinical kinase drugs” (Science, 2017)
The source made the active and inactive calls. Rule as the data show it, for most assays here: actives have a measured Kd and inactives only a lower limit.

What was measured:
Activin receptor type-1 = biological target: T1, Activin receptor type-1 (Homo sapiens, UniProt Q04771)
T1 sequence (Q04771 whole entry): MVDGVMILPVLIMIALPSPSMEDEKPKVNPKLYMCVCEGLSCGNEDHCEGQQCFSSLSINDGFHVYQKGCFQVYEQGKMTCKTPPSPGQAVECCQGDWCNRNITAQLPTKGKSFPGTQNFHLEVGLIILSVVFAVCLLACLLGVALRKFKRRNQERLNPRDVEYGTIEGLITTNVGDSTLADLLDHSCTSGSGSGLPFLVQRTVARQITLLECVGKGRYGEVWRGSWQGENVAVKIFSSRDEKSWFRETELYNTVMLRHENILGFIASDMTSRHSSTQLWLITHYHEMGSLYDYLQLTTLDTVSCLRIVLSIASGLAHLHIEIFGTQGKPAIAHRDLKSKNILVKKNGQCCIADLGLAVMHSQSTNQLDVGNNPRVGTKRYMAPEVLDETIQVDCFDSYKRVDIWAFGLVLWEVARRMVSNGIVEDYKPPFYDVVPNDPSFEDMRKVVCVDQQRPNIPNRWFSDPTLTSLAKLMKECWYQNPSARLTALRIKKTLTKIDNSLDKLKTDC

[1] = biological target: Epithelial discoidin domain-containing receptor 1 (Homo sapiens, UniProt Q08345)
Epithelial discoidin domain-containing receptor 1, sequence (Q08345 whole entry, the tested form may be a part): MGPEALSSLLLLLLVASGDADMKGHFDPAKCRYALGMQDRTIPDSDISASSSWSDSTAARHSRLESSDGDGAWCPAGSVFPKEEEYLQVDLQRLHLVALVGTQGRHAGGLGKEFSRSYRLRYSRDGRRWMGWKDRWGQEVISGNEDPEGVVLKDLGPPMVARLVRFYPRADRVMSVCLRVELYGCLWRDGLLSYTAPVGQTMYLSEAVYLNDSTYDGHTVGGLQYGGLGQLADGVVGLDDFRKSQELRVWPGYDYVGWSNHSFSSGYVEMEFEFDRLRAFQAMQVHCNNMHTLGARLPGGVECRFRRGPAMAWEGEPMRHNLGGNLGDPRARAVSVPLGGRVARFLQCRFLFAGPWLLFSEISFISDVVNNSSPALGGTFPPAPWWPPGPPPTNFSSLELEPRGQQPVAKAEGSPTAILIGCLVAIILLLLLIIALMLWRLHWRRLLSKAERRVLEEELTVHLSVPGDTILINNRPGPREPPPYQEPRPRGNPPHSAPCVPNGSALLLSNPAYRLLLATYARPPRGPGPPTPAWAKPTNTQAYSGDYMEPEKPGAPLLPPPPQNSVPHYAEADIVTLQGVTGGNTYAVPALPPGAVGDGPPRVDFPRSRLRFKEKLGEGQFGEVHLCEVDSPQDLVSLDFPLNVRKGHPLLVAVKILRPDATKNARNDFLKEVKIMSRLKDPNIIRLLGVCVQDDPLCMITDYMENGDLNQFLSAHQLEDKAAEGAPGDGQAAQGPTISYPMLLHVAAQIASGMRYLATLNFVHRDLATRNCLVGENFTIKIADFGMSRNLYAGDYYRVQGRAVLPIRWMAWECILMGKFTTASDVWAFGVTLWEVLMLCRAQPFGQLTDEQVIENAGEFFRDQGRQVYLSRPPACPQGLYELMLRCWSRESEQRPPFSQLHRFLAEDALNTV

[2] = biological target: T2, Discoidin domain-containing receptor 2 (Homo sapiens, UniProt Q16832)
T2 sequence (Q16832 whole entry): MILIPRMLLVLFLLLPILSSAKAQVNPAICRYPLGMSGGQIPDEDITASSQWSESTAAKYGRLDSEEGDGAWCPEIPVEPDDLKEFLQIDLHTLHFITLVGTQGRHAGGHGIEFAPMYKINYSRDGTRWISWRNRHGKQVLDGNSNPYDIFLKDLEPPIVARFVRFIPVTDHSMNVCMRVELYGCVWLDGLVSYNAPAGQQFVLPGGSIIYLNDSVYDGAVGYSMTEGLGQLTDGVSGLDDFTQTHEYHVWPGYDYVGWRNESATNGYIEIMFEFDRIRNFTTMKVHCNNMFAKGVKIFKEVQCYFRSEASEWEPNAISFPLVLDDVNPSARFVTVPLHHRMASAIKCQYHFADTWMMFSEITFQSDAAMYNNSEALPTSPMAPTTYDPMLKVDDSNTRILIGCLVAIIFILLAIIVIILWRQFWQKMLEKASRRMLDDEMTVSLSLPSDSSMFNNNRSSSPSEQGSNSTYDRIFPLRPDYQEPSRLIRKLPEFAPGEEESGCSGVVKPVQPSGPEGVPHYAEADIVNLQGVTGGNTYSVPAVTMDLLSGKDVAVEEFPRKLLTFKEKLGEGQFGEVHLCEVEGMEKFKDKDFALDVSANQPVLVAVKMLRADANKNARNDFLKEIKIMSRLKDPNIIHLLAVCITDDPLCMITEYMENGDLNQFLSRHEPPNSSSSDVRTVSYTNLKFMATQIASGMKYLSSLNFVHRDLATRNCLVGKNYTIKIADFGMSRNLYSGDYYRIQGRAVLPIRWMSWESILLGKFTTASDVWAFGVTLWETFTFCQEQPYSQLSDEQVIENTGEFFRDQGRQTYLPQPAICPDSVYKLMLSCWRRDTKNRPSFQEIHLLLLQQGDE

[3] = biological target: Tyrosine-protein kinase JAK1 (Homo sapiens, UniProt P23458)
Tyrosine-protein kinase JAK1, sequence (P23458 whole entry, the tested form may be a part): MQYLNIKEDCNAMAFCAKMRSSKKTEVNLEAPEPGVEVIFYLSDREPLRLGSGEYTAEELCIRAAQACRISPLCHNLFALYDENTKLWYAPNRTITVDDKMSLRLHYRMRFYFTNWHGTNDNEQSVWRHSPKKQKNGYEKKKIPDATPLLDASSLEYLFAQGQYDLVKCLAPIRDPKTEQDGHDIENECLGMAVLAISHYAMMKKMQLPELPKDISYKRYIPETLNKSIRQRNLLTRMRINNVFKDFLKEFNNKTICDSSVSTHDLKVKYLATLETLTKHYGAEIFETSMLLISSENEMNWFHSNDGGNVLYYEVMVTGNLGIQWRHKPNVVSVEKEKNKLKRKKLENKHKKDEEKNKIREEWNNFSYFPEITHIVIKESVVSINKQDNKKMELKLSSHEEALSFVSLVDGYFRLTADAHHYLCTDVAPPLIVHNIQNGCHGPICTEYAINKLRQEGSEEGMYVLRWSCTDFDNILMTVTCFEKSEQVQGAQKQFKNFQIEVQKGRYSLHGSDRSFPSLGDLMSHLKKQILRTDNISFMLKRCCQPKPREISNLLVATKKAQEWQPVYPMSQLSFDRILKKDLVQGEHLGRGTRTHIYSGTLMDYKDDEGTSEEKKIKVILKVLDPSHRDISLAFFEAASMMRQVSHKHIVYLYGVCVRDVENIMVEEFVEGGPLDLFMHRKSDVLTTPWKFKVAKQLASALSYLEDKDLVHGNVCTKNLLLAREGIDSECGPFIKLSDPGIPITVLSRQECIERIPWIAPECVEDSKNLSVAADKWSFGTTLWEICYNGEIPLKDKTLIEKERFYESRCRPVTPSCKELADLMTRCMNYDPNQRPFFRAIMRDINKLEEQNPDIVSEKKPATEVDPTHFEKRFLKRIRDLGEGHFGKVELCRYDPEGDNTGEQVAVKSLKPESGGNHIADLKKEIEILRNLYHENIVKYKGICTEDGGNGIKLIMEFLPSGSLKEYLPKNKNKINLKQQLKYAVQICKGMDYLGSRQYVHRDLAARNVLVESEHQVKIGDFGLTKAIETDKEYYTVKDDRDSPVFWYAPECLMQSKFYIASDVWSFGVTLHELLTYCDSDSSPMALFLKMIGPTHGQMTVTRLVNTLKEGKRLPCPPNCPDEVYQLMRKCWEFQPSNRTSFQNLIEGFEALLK

LIM domain kinase 2 = LIM domain kinase 2 (Homo sapiens, UniProt P53671)
LIM domain kinase 2, sequence (P53671 whole entry, the tested form may be a part): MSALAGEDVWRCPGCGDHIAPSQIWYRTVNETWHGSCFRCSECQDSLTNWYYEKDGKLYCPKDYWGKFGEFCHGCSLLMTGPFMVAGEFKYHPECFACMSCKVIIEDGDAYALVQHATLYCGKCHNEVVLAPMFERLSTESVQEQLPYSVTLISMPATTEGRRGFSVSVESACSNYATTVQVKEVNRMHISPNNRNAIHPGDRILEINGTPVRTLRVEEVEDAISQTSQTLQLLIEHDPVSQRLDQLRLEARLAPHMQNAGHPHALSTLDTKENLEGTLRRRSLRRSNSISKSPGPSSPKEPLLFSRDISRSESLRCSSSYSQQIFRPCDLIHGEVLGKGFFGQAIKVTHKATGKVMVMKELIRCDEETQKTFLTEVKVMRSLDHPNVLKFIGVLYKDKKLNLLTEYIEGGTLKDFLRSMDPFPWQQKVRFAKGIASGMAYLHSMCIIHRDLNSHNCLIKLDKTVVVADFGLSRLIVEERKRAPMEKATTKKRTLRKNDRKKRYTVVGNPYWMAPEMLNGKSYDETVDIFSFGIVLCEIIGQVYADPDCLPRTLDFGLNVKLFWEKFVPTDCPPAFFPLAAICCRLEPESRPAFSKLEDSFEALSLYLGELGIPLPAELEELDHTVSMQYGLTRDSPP

[4] = biological target: T3, Membrane-associated tyrosine- and threonine-specific cdc2-inhibitory kinase (Homo sapiens, UniProt Q99640)
T3 sequence (Q99640 whole entry): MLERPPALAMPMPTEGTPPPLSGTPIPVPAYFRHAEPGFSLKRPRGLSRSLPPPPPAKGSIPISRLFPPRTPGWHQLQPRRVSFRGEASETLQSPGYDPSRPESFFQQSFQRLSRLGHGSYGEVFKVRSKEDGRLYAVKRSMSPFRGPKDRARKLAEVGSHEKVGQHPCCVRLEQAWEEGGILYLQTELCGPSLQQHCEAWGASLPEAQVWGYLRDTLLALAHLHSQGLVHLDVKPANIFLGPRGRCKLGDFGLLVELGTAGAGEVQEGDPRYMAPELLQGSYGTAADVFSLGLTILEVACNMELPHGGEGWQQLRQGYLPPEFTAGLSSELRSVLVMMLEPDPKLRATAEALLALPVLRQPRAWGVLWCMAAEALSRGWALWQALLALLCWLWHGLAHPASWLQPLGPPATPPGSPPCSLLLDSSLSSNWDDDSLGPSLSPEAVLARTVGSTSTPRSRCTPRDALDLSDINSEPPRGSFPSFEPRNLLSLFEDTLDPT

[5] = biological target: Proto-oncogene tyrosine-protein kinase Src (Homo sapiens, UniProt P12931)
Proto-oncogene tyrosine-protein kinase Src, sequence (P12931 2-536 limits assumed): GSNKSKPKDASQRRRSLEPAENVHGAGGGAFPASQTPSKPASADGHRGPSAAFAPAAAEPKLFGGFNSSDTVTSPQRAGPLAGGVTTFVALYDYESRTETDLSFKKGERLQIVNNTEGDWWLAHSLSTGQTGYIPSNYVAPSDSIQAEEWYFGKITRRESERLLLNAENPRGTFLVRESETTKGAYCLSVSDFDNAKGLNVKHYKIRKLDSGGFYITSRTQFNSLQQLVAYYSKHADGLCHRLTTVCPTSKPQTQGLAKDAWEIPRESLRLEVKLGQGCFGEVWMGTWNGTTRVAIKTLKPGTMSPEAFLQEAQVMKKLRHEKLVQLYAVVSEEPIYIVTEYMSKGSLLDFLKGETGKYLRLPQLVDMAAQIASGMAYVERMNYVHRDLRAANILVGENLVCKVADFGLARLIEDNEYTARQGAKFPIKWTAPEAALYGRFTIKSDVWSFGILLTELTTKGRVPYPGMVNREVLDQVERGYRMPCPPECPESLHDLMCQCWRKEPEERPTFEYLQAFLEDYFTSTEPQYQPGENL

[6] = biological target: T4, Serine/threonine-protein kinase ULK3 (Homo sapiens, UniProt Q6PHR2)
T4 sequence (Q6PHR2 whole entry): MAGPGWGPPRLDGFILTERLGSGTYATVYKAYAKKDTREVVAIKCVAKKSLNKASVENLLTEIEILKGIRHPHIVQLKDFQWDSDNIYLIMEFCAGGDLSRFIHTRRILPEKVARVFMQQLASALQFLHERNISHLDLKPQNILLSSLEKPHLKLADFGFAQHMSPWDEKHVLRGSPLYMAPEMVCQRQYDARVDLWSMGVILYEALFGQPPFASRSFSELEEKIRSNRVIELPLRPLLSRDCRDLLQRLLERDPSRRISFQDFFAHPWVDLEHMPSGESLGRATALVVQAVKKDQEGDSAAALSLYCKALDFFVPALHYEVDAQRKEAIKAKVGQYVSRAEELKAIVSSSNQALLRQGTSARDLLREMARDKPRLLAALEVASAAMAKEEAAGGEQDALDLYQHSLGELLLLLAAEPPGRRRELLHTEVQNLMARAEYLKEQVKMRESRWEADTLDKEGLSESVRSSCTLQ

[7] = biological target: T5, Uncharacterized protein FLJ45252 (Homo sapiens, UniProt Q6ZSR9); conditions: read-out: Kd apparent; k-562, colo 205, sk-n-be(2) and mv-4-11
T5 sequence (Q6ZSR9 whole entry): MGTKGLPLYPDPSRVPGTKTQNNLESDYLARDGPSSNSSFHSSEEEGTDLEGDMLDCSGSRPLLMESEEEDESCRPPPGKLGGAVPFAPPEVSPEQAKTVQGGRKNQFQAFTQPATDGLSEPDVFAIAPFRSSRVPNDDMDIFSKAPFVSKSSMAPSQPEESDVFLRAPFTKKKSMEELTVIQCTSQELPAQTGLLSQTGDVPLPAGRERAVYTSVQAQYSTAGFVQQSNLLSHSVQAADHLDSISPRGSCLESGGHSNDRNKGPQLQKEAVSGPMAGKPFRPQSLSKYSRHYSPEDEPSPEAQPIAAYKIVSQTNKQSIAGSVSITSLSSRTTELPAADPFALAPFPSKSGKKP
Also: in the data inactive means no Kd found up to 30 µM.

Row | Kd (Activin receptor type-1) | Kd [1] | Kd [2] | Kd [3] | Kd (LIM domain kinase 2) | Kd [4] | Kd [5] | Kd [6] | Kd [7] | SMILES
1 | > 30 µM (inactive) | > 30 µM (inactive) | > 30 µM (inactive) | > 30 µM (inactive) | > 30 µM (inactive) | > 30 µM (inactive) | > 30 µM (inactive) | > 30 µM (inactive) | > 30 µM (inactive) | CN1N=C(N)c2cn([C@@H]3O[C@H](COP(=O)(O)O)[C@@H](O)[C@H]3O)c3ncnc1c23 [TRICIRIBINE PHOSPHATE]
2 | > 30 µM (inactive) | > 30 µM (inactive) | > 30 µM (inactive) | > 30 µM (inactive) | > 30 µM (inactive) | > 30 µM (inactive) | > 30 µM (inactive) | 0.297 µM (active) | 0.007 µM (active) | O=C(Nc1ccc(-c2ccnc(Nc3ccc(N4CCOCC4)cc3)n2)cc1)C1CCCN1 (stereo unspecified) [XL-019]
3 | > 30 µM (inactive) | > 30 µM (inactive) | > 30 µM (inactive) | > 30 µM (inactive) | > 30 µM (inactive) | > 30 µM (inactive) | > 30 µM (inactive) | > 30 µM (inactive) | > 30 µM (inactive) | CNS(=O)(=O)Nc1nccc(Cc2c(C)c3ccc(Oc4ncccn4)cc3oc2=O)c1F [AVUTOMETINIB]
4 | > 30 µM (inactive) | > 30 µM (inactive) | > 30 µM (inactive) | > 30 µM (inactive) | > 30 µM (inactive) | > 30 µM (inactive) | > 30 µM (inactive) | > 30 µM (inactive) | > 30 µM (inactive) | CCCS(=O)(=O)Nc1ccc(F)c(C(=O)c2c[nH]c3ncc(-c4ccc(Cl)cc4)cc23)c1F [VEMURAFENIB]
5 | > 30 µM (inactive) | 1.04 µM (active) | > 30 µM (inactive) | > 30 µM (inactive) | > 30 µM (inactive) | > 30 µM (inactive) | > 30 µM (inactive) | > 30 µM (inactive) | > 30 µM (inactive) | Cc1cc2c(F)c(Oc3ncnn4cc(OC[C@@H](C)OC(=O)[C@H](C)N)c(C)c34)ccc2[nH]1 [BRIVANIB ALANINATE]
6 | > 30 µM (inactive) | > 30 µM (inactive) | > 30 µM (inactive) | > 30 µM (inactive) | > 30 µM (inactive) | > 30 µM (inactive) | > 30 µM (inactive) | > 30 µM (inactive) | > 30 µM (inactive) | Cc1ccc(S(=O)(=O)Nc2nc3ccccc3nc2Nc2ccc3nsnc3c2)cc1
7 | > 30 µM (inactive) | > 30 µM (inactive) | > 30 µM (inactive) | > 30 µM (inactive) | > 30 µM (inactive) | > 30 µM (inactive) | > 30 µM (inactive) | > 30 µM (inactive) | > 30 µM (inactive) | Cc1c(F)cc(C(=O)NC2CC2)cc1-c1ccc(C(=O)NCC(C)(C)C)cn1 [LOSMAPIMOD]
8 | > 30 µM (inactive) | 4.04 µM (active) | > 30 µM (inactive) | > 30 µM (inactive) | 5.31 µM (active) | > 30 µM (inactive) | > 30 µM (inactive) | > 30 µM (inactive) | 0.822 µM (active) | COc1cc(N2CCC(N3CCN(C)CC3)CC2)ccc1Nc1ncnc(Nc2ccccc2S(=O)(=O)C(C)C)n1 [ASP-3026]
9 | > 30 µM (inactive) | > 30 µM (inactive) | > 30 µM (inactive) | > 30 µM (inactive) | > 30 µM (inactive) | > 30 µM (inactive) | > 30 µM (inactive) | > 30 µM (inactive) | > 30 µM (inactive) | CCn1c(=O)c(-c2cc[nH]n2)cc2c(C)nc(N)nc21 [VOXTALISIB]
10 | > 30 µM (inactive) | > 30 µM (inactive) | > 30 µM (inactive) | > 30 µM (inactive) | > 30 µM (inactive) | > 30 µM (inactive) | > 30 µM (inactive) | > 30 µM (inactive) | > 30 µM (inactive) | CC(=O)Nc1cccc(-n2c(=O)n(C3CC3)c(=O)c3c(Nc4ccc(I)cc4F)n(C)c(=O)c(C)c32)c1 [TRAMETINIB]
11 | 16.1 µM (active) | 5.22 µM (active) | 28.2 µM (active) | > 30 µM (inactive) | 21.8 µM (active) | > 30 µM (inactive) | > 30 µM (inactive) | > 30 µM (inactive) | > 30 µM (inactive) | CCN1CCN(Cc2ccc(-c3cc4c(N[C@H](C)c5ccccc5)ncnc4[nH]3)cc2)CC1 [AEE-788]
12 | > 30 µM (inactive) | > 30 µM (inactive) | > 30 µM (inactive) | > 30 µM (inactive) | > 30 µM (inactive) | > 30 µM (inactive) | > 30 µM (inactive) | > 30 µM (inactive) | 0.078 µM (active) | O=C1NC(=O)/C(=C/c2ccc3nccc(-c4ccncc4)c3c2)S1 [GSK-1059615]

Row | SMILES | Kd (Activin receptor type-1) | Kd [1] | Kd [2] | Kd [3] | Kd (LIM domain kinase 2) | Kd [4] | Kd [5] | Kd [6] | Kd [7]
13 | C=CC(=O)N1CCC(Oc2cc3c(Nc4ccc(Cl)c(Cl)c4F)ncnc3cc2OC)CC1 [POZIOTINIB] | > 30 µM (inactive) | > 30 µM (inactive) | > 30 µM (inactive) | > 30 µM (inactive) | > 30 µM (inactive) | > 30 µM (inactive) | > 30 µM (inactive) | > 30 µM (inactive) | > 30 µM (inactive)
14 | CN1CC[C@@H](c2c(O)cc(O)c3c(=O)cc(-c4ccccc4Cl)oc23)[C@@H]1CO | > 30 µM (inactive) | > 30 µM (inactive) | > 30 µM (inactive) | > 30 µM (inactive) | > 30 µM (inactive) | > 30 µM (inactive) | > 30 µM (inactive) | > 30 µM (inactive) | > 30 µM (inactive)
